Results reported in the supplement of paper PMC11061612.

How the values were obtained:
[1] = test system: OVCAR-5 (Ovarian Carcinoma); test: combination Emax (second highest fraction inhibited in the dose matrix, 72 h); higher = more inhibition; extreme values may be limits of the assay
Procedure, shortened: (§1)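 After 24 hours at 37°C and 5% CO2 in 1536-well plates, cells in DMEM/F12 or RPMI plus 10% FBS received two-drug dose matrices for 72 hours. Viability came from CellTiter-Glo 2.0 luminescence and was scaled as inhibition, anchored at 0 by vehicle wells and at 1 by blank wells. Combination Emax is taken as the second-highest inhibition in the matrix, and Bliss excess as the observed combination effect less EA + EB − EA·EB, with EA and EB the single-agent effects.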

[2] = test system: MHH-CALL-2 (B-Lymphoblastic Leukemia); test: as above
Procedure, shortened: as §1

[3] = test system: Hs-746T (Gastric Carcinoma); test: as above
Procedure, shortened: as §1

A673 (Ewing's Sarcoma) = test: as above
Procedure, shortened: as §1

[4] = test system: SAS (Oral Cavity Carcinoma); test: as above
Procedure, shortened: as §1

[5] = test system: KMRC-20 (Kidney Carcinoma); test: Bliss excess, mean over the matrix (fraction); higher = more synergy
Procedure, shortened: as §1

[6] = test system: Detroit562 (Head and Neck Carcinoma); test: as above
Procedure, shortened: as §1

[7] = test system: SNU-16 (Gastric Carcinoma); test: as above
Procedure, shortened: as §1

[8] = test system: LS-123 (Colorectal Carcinoma); test: as above
Procedure, shortened: as §1

CAL-72 (Osteosarcoma) = test: as above
Procedure, shortened: as §1

BE2-M17 (Neuroblastoma) = test: as above
Procedure, shortened: as §1

[9] = test system: MHH-CALL-2 (B-Lymphoblastic Leukemia); test: as above
Procedure, shortened: as §1

[10] = test system: NUGC-4 (Gastric Carcinoma); test: as above
Procedure, shortened: as §1

GAMG (Glioblastoma) = test: as above
Procedure, shortened: as §1

[11] = test system: HeLa (Cervical Carcinoma); test: as above
Procedure, shortened: as §1

NCI-H2052 (Mesothelioma) = test: as above
Procedure, shortened: as §1

[12] = test system: TGBC1TKB (Biliary Tract Carcinoma); test: as above
Procedure, shortened: as §1

[13] = test system: LNZTA3WT4 (Low Grade Glioma); test: as above
Procedure, shortened: as §1

EW-11 (Ewing's Sarcoma) = test: as above
Procedure, shortened: as §1

[14] = test system: SAS (Oral Cavity Carcinoma); test: as above
Procedure, shortened: as §1
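Wherever Bliss excess, mean over the matrix is given: after 72 h of two-drug dosing.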

CC1(C)CCC(CN2CCN(c3ccc(C(=O)NS(=O)(=O)c4ccc(NCC5CCOCC5)c([N+](=O)[O-])c4)c(Oc4cnc5[nH]ccc5c4)c3)CC2)=C(c2ccc(Cl)cc2)C1 [Venetoclax] + CCN(CCO)CCCOc1ccc2c(Nc3cc(CC(=O)Nc4cccc(F)c4)[nH]n3)ncnc2c1 [AZD2811] (first compound max 1 µM, 7x7, partner max 1 µM)
combination Emax [1]: 0.315
combination Emax [2]: 0.292
combination Emax [3]: 0.161
combination Emax (A673 (Ewing's Sarcoma)): 0.861
combination Emax [4]: 0.204
Bliss excess [5]: -0.0273
Bliss excess [6]: -0.013
Bliss excess [7]: 0.0202
Bliss excess [8]: -0.0437
Bliss excess (CAL-72 (Osteosarcoma)): -0.0984
Bliss excess (BE2-M17 (Neuroblastoma)): 0.107
Bliss excess [9]: -0.01
Bliss excess [10]: -0.0481
Bliss excess (GAMG (Glioblastoma)): -0.0368
Bliss excess [11]: 0.0336
Bliss excess (NCI-H2052 (Mesothelioma)): -0.0112
Bliss excess [12]: -0.0225
Bliss excess [13]: 0.0218
Bliss excess (EW-11 (Ewing's Sarcoma)): -0.0186
Bliss excess [14]: 0.009

NC1(C(=O)N[C@@H](CCO)c2ccc(Cl)cc2)CCN(c2ncnc3[nH]ccc23)CC1 [Capivasertib] + COc1nnc2ccc(N3CCC(c4ccc(OCCN5CCN(C)C(=O)[C@H]5C)cc4)CC3)nn12 [AZD5153] (first compound max 10 µM, 7x7, partner max 1 µM)
combination Emax [1]: 0.624
combination Emax [2]: 0.338
combination Emax [3]: 0.599
combination Emax (A673 (Ewing's Sarcoma)): 0.434
combination Emax [4]: 0.801
Bliss excess [5]: 0.0004
Bliss excess [6]: -0.0212
Bliss excess [7]: 0.0344
Bliss excess [8]: 0.0517
Bliss excess (CAL-72 (Osteosarcoma)): 0.005
Bliss excess (BE2-M17 (Neuroblastoma)): 0.0666
Bliss excess [9]: -0.03
Bliss excess [10]: -0.0333
Bliss excess (GAMG (Glioblastoma)): 0.039
Bliss excess [11]: -0.0021
Bliss excess (NCI-H2052 (Mesothelioma)): 0.0133
Bliss excess [12]: 0.02
Bliss excess [13]: 0.0305
Bliss excess (EW-11 (Ewing's Sarcoma)): 0.115
Bliss excess [14]: -0.0524

Cc1c2c(nn1C)CSCc1cc(n(C)n1)CSc1cc(c3ccccc3c1)OCCCc1c(C(=O)O)n(C)c3c-2c(Cl)ccc13 [AZD5991] + C=CCn1c(=O)c2cnc(Nc3ccc(N4CCN(C)CC4)cc3)nc2n1-c1cccc(C(C)(C)O)n1 [AZD1775] (first compound max 1 µM, partner max 1 µM)
combination Emax [1]: 0.343
combination Emax [2]: 1
combination Emax [3]: 0.605
combination Emax (A673 (Ewing's Sarcoma)): 0.614
combination Emax [4]: 0.625
Bliss excess [5]: -0.0011
Bliss excess [6]: 0.0261
Bliss excess [7]: 0.0049
Bliss excess [8]: -0.0197
Bliss excess (CAL-72 (Osteosarcoma)): 0.0098
Bliss excess (BE2-M17 (Neuroblastoma)): -0.03
Bliss excess [9]: 0.0108
Bliss excess [10]: -0.0128
Bliss excess (GAMG (Glioblastoma)): -0.0528
Bliss excess [11]: -0.0224
Bliss excess (NCI-H2052 (Mesothelioma)): -0.0875
Bliss excess [12]: 0.0066
Bliss excess [13]: -0.0292
Bliss excess (EW-11 (Ewing's Sarcoma)): -0.0011
Bliss excess [14]: -0.0144

CC1(C)CCC(CN2CCN(c3ccc(C(=O)NS(=O)(=O)c4ccc(NCC5CCOCC5)c([N+](=O)[O-])c4)c(Oc4cnc5[nH]ccc5c4)c3)CC2)=C(c2ccc(Cl)cc2)C1 [Venetoclax] + C[C@@H]1COCCN1C2=NC(=NC(=C2)C3(CC3)[S@](=N)(=O)C)C4=C5C=CNC5=NC=C4 [AZD6738] (first compound max 1 µM, 7x7, partner max 10 µM)
combination Emax [1]: 0.768
combination Emax [2]: 0.863
combination Emax [3]: 0.508
combination Emax (A673 (Ewing's Sarcoma)): 0.89
combination Emax [4]: 0.834
Bliss excess [5]: -0.0047
Bliss excess [6]: -0.0505
Bliss excess [7]: -0.0218
Bliss excess [8]: -0.0395
Bliss excess (CAL-72 (Osteosarcoma)): -0.0313
Bliss excess (BE2-M17 (Neuroblastoma)): -0.0661
Bliss excess [9]: -0.0357
Bliss excess [10]: -0.011
Bliss excess (GAMG (Glioblastoma)): -0.0727
Bliss excess [11]: -0.0688
Bliss excess (NCI-H2052 (Mesothelioma)): -0.0406
Bliss excess [12]: -0.0517
Bliss excess [13]: 0.0105
Bliss excess (EW-11 (Ewing's Sarcoma)): 0.0321
Bliss excess [14]: 0.0194

CC(=O)Nc1cccc(-n2c(=O)n(C3CC3)c(=O)c3c(Nc4ccc(I)cc4F)n(C)c(=O)c(C)c32)c1 [Trametinib] + Cc1nc(-c2cn3c(n2)-c2ccc(-c4cnn(C(C)(C)C(N)=O)c4)cc2OCC3)n(C(C)C)n1 [Taselisib] (first compound max 1 µM, 7x7, partner max 10 µM)
combination Emax [1]: 0.905
combination Emax [2]: 0.662
combination Emax [3]: 0.606
combination Emax (A673 (Ewing's Sarcoma)): 0.722
combination Emax [4]: 0.882
Bliss excess [5]: 0.0506
Bliss excess [6]: 0.108
Bliss excess [7]: 0.257
Bliss excess [8]: 0.0939
Bliss excess (CAL-72 (Osteosarcoma)): -0.0264
Bliss excess (BE2-M17 (Neuroblastoma)): 0.107
Bliss excess [9]: 0.188
Bliss excess [10]: 0.0347
Bliss excess (GAMG (Glioblastoma)): 0.0415
Bliss excess [11]: 0.0483
Bliss excess (NCI-H2052 (Mesothelioma)): -0.0231
Bliss excess [12]: 0.0385
Bliss excess [13]: 0.0829
Bliss excess (EW-11 (Ewing's Sarcoma)): 0.0443
Bliss excess [14]: 0.145

Cc1c2c(nn1C)CSCc1cc(n(C)n1)CSc1cc(c3ccccc3c1)OCCCc1c(C(=O)O)n(C)c3c-2c(Cl)ccc13 [AZD5991] + C[C@@H]1COCCN1C2=NC(=NC(=C2)C3(CC3)[S@](=N)(=O)C)C4=C5C=CNC5=NC=C4 [AZD6738] (first compound max 1 µM, 7x7, partner max 10 µM)
combination Emax [1]: 0.645
combination Emax [2]: 1
combination Emax [3]: 0.551
combination Emax (A673 (Ewing's Sarcoma)): 0.823
combination Emax [4]: 0.849
Bliss excess [5]: -0.0153
Bliss excess [6]: 0.0364
Bliss excess [7]: 0.0167
Bliss excess [8]: -0.0046
Bliss excess (CAL-72 (Osteosarcoma)): 0.0213
Bliss excess (BE2-M17 (Neuroblastoma)): 0.0574
Bliss excess [9]: 0.0225
Bliss excess [10]: 0.02
Bliss excess (GAMG (Glioblastoma)): 0.0116
Bliss excess [11]: 0.0217
Bliss excess (NCI-H2052 (Mesothelioma)): 0.039
Bliss excess [12]: 0.0537
Bliss excess [13]: -0.0028
Bliss excess (EW-11 (Ewing's Sarcoma)): 0.0217
Bliss excess [14]: -0.0367
